Measured values reported in patent EP1015459B9 (ABBOTT LABORATORIES, priority 1997, dated 1999).

Tested on: human mixed lymphocyte reaction (MLR)
Test: human mixed lymphocyte reaction (MLR) assay
Assay type: cell-based
Details: immunosuppressant activity, read-out: Human MLR IC50 ± S.E.M.
Experimental: The immunosuppressant activity of the compounds of the present invention was determined using the human mixed lymphocyte reaction (MLR) assay described by Kino, T. et al. in Transplantation Proceedings, XIX(5):36-39. Suppl. 6 (1987). […]

Structure (SMILES): CO[C@H]1C[C@@H]2CC[C@@H](C)[C@@](O)(O2)C(=O)C(=O)N2CCCC[C@H]2C(=O)O[C@H]([C@H](C)C[C@@H]2CC[C@@H](O)[C@H](OC)C2)CC(=O)[C@H](C)/C=C(\C)[C@@H](O)[C@@H](OC)C(=O)[C@H](C)C[C@H](C)/C=C/C=C/C=C/1C [Rapamycin, reference compound]
- IC50: 0.91 ± 0.36 nM
